The results in this text go back to patent US7910593B2, “Water-soluble prodrugs” (Chugai Seiyaku Kabushiki Kaisha, priority 2004, dated 2011).

What is called solubility is the dissolved amount per volume that the medium holds.

Structures are written as SMILES. Where a name gives a salt, the structure may show the parent alone. Read-outs that look alike come from different tables or passages of the source. Bounds are passed on as bounds.

Data set [1] in a line: Test Example 3: solubility in distilled water. The data set is classed as physicochemical. An excerpt:
The solubility of the water-soluble prodrugs obtained in the Examples (compounds 1A to 8A) in distilled water was compared to the solubility of (9S)-9-ethyl-9-hydroxy-1-pentyl-1H,12H-pyrano[3″,4″:6′,7′]indolizino[1′,2′:6,5]pyrido[4,3,2-de]quinazoline-10,13 (9H,15H)-dione (representative compound in Patent document 2: reference compound 1).

Data set [2] relates to human colon cancer cell line HCT116. As to the kind of experiment: Test Example 4: antitumor effect in HCT116 tumor-bearing nude mice. The data set is classed as in vivo, BALB/c nude mice. Particulars: once per week for three weeks. The method, then: Antitumor effects were determined for representative examples of the group of compounds of the present invention. Tumor-bearing mice were generated by subcutaneous transplantation of human colon cancer cell line HCT116 obtained from American Type Culture Collection (Virginia, USA) into the right flank of BALB/c nude mice purchased from Charles River Japan, and used for determination of antitumor effects.
After a one-week quarantine period, the purchased nude mice were subjected to subcutaneous transplantation of 5×10^6 HCT116 cells at their right flank. Mice with a tumor size reaching 200 mm^3 or so were subjected to the experiment.
The compounds were dissolved in 1 mM citric bufferes saline, pH 4, and administered intravenously. The administration was carried out once per week for three weeks, for a total of three administrations. The antitumor effect was determined as tumor growth inhibition (TGI) using the following equation. Tumor growth inhibition (TGI) (%)={(1−mean tumor volume change in the drug-treated group/mean tumor volume change in the control group)×100} The results are shown in Table 6.

Data set [3] can be described thus: Comparative Test Example 1: conversion of reference compound 2 in human sera. Type of data set: in vitro ADME. The settings on record: FIG. 6. The method, then:
(§1) Compound 2A was incubated at 37° C. at a concentration of 50 μM in sera of humans, mice, monkeys, and dogs. Incubation was terminated at a given time (0, 30, 60, 120, and 360 minutes), and the samples were analyzed by HPLC after deproteinization treatments.
(§2) Conditions for the HPLC analysis are as follows: • HPLC conditions • Column: Develosil C30-UG-3, 3 μm, 50×4.6 mm I.D • Column Temperature: constant temperature at approximately 25° C. • Mobile phase: A: 10 mM phosphate buffer (pH4.7) • B: acetonitrile • /B (min): 90/10(0)→90/10(0.4)→40/60(6)→2/98(8)→90/10(9)→90/10(15)
(§3) Flow rate: 1.0 mL/min • Detection: photodiode array detector, detection wavelength 350 nm • Amount injected: 30 μL
(§4) Similar to Examination 1, the percent changes of (9S)-9-ethyl-9-(tryptophyl-γ-glutamyloxy)-1-pentyl-1H,12H-pyrano[3″,4″:6′,7′]indolizino[1′,2′:6,5]pyrido[4,3,2-de]quinazoline-10,13(9H,15H)-dione [representative compound (Q) in Patent document 1: reference compound 2] being converted in the lactone form and the carboxylate form over time in human and mouse sera were determined.

Data set [4] is described as follows: Comparative Test Example 1: conversion of reference compound 2 in mouse sera. Type of data set: in vitro ADME. The settings on record: FIG. 7. The method, then:
as §1, §2, §3, §4

Where [5] appears, read: distilled water, read-out: Solubility in distilled water.

In the case of `CCCCCN1C=Nc2cccc3nc4c(c1c23)Cn1c-4cc2c(c1=O)COC(=O)[C@@]2(CC)OC(=O)CN(C)CCNC.Cl` [Compound 1A, (9S)-9-Ethyl-9-{[methyl-(2-methylamino-ethyl)-amino]-acetoxy}-1-pentyl-1H,12H-pyrano[3″,4″:6′,7′]indolizino[1′,2′:6,5]pyrido[4,3,2-de]quinazoline-10,13(9H,15H)-dione hydrochloride], in data set [1] (setting [5]), the solubility was over 10000 µg/mL.
Turning to `CCCCCN1C=Nc2cccc3nc4c(c1c23)Cn1c-4cc2c(c1=O)COC(=O)[C@@]2(CC)OC(=O)CN(C)CCN.Cl` [Compound 3A, (9S)-9-{[(2-Amino-ethyl)-methyl-amino]-acetoxy}-9-ethyl-1-pentyl-1H,12H-pyrano[3″,4″:6′,7′]indolizino[1′,2′:6,5]pyrido[4,3,2-de]quinazoline-10,13(9H,15H)-dione hydrochloride], the solubility in data set [1] (setting [5]) is over 10000 µg/mL.
Still for that read-out and setting: to `CCCCCN1C=Nc2cccc3nc4c(c1c23)Cn1c-4cc2c(c1=O)COC(=O)[C@@]2(CC)OC(=O)CN(C)C(=O)CNC.Cl` [Compound 4A, (9S)-9-Ethyl-9-(sarcosyl-sarcosyloxy)-1-pentyl-1H,12H-pyrano[3″,4″:6′,7′]indolizino[1′,2′:6,5]pyrido[4,3,2-de]quinazoline-10,13(9H,15H)-dione hydrochloride] belongs over 10000 µg/mL; to `CC[C@@]1(OC(=O)CN(C)C(=O)CN)C(=O)OCc2c1cc1n(c2=O)Cc2cc3ccccc3nc2-1.Cl` [Compound 5A, (aminoacetyl-methyl-amino)-acetic acid (S)-4-ethyl-3,13-dioxo-3,4,12,13-tetrahydro-1H-2-oxa-6,12a-diaza-dibenzo[b,h]fluoren-4-yl ester hydrochloride], over 10000 µg/mL; to `CCCCCN1C=Nc2cccc3nc4c(c1c23)Cn1c-4cc2c(c1=O)COC(=O)[C@@]2(CC)OC(=O)OCCS(=O)(=O)C[C@H](N)C(=O)OC` [Compound 6A, (9S)-9-{2-[(R-2-Amino-2-methoxycarbonyl)ethanesulfonyl]ethoxycarbonyloxy}-9-ethyl-1-pentyl-1H,12H-pyrano[3″,4″:6′,7′]indolizino[1′,2′:6,5]pyrido[4,3,2-de]quinazoline-10,13(9H,15H)-dione trifluoroacetic acid salt], over 10000 µg/mL.
Take `CCCCCN1C=Nc2cccc3nc4c(c1c23)Cn1c-4cc2c(c1=O)COC(=O)[C@@]2(CC)OC(=O)OCCS(=O)(=O)CCN.Cl` [Compound 8A, (9S)-9-[2-(2-Aminoethanesulfonyl)ethoxycarbonyloxy]-9-ethyl-1-pentyl-1H,12H-pyrano[3″,4″: 6′,7′]indolizino[1′,2′:6,5]pyrido[4,3,2-de]quinazoline-10,13(9H,15H)-dione hydrochloride]: the solubility in data set [1] (setting [5]) is over 10000 µg/mL. Moreover, the “TGI (%) on Day 21” value in data set [2] (0.9 mg/kg intravenously) is 41%; in data set [2] (1.9 mg/kg intravenously) it was 53%; in data set [2] (3.75 mg/kg intravenously) it was 55%; in data set [2] (7.5 mg/kg intravenously), 61%; in data set [2] (15 mg/kg intravenously) it was 78%; in data set [2] (30 mg/kg intravenously), 96%. In data set [2] (60 mg/kg intravenously), the “TGI (%) on Day 21” value was found to be 106%.
`CCCCCN1C=Nc2cccc3nc4c(c1c23)Cn1c-4cc2c(c1=O)COC(=O)[C@]2(O)CC` [Reference compound 1, (9S)-9-ethyl-9-hydroxy-1-pentyl-1H,12H-pyrano[3″,4″:6′,7′]indolizino[1′,2′:6,5]pyrido[4,3,2-de]quinazoline-10,13 (9H,15H)-dione, reference compound] registered a solubility in data set [1] (water) of under 10 µg/mL.
Regarding `CCCCCN1C=Nc2cccc3nc4c(c1c23)Cn1c-4cc2c(c1=O)COC(=O)[C@@]2(CC)OC(=O)CC[C@H](NC(=O)[C@@H](N)Cc1c[nH]c2ccccc12)C(=O)O` [reference compound 2, (9S)-9-ethyl-9-(tryptophyl-γ-glutamyloxy)-1-pentyl-1H,12H-pyrano[3″,4″:6′,7′]indolizino[1′,2′:6,5]pyrido[4,3,2-de]quinazoline-10,13(9H,15H)-dione], the “conversion rate and efficiency into the lactone form and the carboxylate form” value in data set [3] and in data set [4] was “low” throughout.
